Patent US20210395651A1, “COMPOUNDS STABILIZING HYDROLASES IN LIQUIDS” (BASF SE, priority 2018, published 2021)

Molecular target: T1, Lipolase® 100L (Thermomyces lanuginosus, UniProt O59952)
T1 construct: purchased Sigma-Aldrich
T1 sequence (O59952 23-291): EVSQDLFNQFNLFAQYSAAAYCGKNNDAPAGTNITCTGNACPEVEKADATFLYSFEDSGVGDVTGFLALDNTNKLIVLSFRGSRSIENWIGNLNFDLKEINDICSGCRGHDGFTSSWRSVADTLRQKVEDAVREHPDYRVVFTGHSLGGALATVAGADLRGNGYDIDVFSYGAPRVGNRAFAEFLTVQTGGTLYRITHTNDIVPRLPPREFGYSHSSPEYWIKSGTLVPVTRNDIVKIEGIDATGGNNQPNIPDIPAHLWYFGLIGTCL
Assay: Lipase storage stability in liquid formulations at 37° C. (pNP-valerate activity)
Type: biochemical, Thermomyces lanuginosa
Conditions: for lipase activity, 3 d: 3 d storage at 37° C.; for lipase activity, 7 d: 7 d storage at 37° C.; for lipase activity, 14 d: 14 d storage at 37° C.; for lipase activity, 21 d: 21 d storage at 37° C.; for lipase activity, 28 d: 28 d storage at 37° C.; for lipase activity, 35 d: 35 d storage at 37° C.; for lipase activity, T0: relative to 100% value of reference formulation at time 0
Experimental: The storage stability of Lipase was assessed at 37° C.
Base test formulations were manufactured by making base formulations I to V by mixing the components according to Table 1.
The respective component (a) or comparative compound was added, if applicable, to the respective base formulation in amounts as indicated in Table 1.
Lipase used: Lipolase® 100L (CAS-No. 9001-62-1, EC-No. 232-619-9) was purchased from Sigma-Aldrich.
The amount of lipase as provided in Table 1 refers to active protein.
Water was added to accomplish the balance to 100.
Lipolase activity at certain points in time as indicated in Table 2 was be determined by employing pNitrophenol-valerate (2.4 mM pNP-C5 in 100 mM Tris pH 8.0, 0.01% Triton X100) as a substrate. The absorption at 405 nm was measured at 20° C. every 30 seconds over 5 minutes.
The slope (absorbance increase at 405 nm per minute) of the time dependent absorption-curve is directly proportional to the activity of the lipase.
The […] activity values provided in Table 2 were calculated referring to the 100% value determined in the reference formulation at the time 0.
The nomenclature of formulations is as follows: the Roman number before the full stop characterizes the base formulation, the Arabian number the type of compound (A.# compound according to invention (component (a)); (B.#) comparative compound).

[1] = base formulation I. (Lipolase 0.2 wt%, tested compound 2.5 wt%)
[2] = base formulation II. (Lipolase 0.2 wt%, tested compound 2.5 wt%)
[3] = base formulation IV. (Lipolase 0.2 wt%, tested compound 2.0 wt%)
[4] = base formulation III. (Lipolase 0.2 wt%, tested compound 2.0 wt%)

Compound | lipase activity, 3 d [1] | lipase activity, 7 d [1] | lipase activity, 14 d [1] | lipase activity, 21 d [1] | lipase activity, 28 d [1] | lipase activity, 35 d [1] | lipase activity, T0 [1] | lipase activity, 3 d [2] | lipase activity, 7 d [2] | lipase activity, 14 d [2] | lipase activity, 21 d [2] | lipase activity, 28 d [2] | lipase activity, 35 d [2] | lipase activity, T0 [2] | lipase activity, 3 d [3] | lipase activity, 7 d [3] | lipase activity, 14 d [3] | lipase activity, 21 d [3] | lipase activity, 28 d [3] | lipase activity, 35 d [3] | further results
CC(=O)OCC(COC(C)=O)OC(C)=O [B.4, glyceroltriacetate (triacetine), reference compound] | 91% | 84% | 72% | 56% | 45% | 39% | 98% | 87% | 77% | 67% | 56% | 42% | 35% | 95% | 91% | 82% | 73% | 59% | 50% | 46% | lipase activity, T0 [3]: 97%
Diethylcitrate [A.7] | 97% | 91% | 85% | 81% | 76% | 69% | 99% | 94% | 91% | 86% | 82% | 77% | 72% | 99% | 95% | 93% | 88% | 85% | 80% | 74% | lipase activity, 3 d [4]: 96%; lipase activity, 7 d [4]: 93%; lipase activity, 14 d [4]: 87%; lipase activity, 21 d [4]: 83%; lipase activity, 28 d [4]: 77%; lipase activity, 35 d [4]: 72%; lipase activity, T0 [4]: 97%; lipase activity, T0 [3]: 97%
